By Ki is commonly meant the dissociation constant of the complex between target and ligand, obtained from inhibition or displacement. For orientation: IC50 means the concentration needed to halve the response being measured.

The target of assay [1] is neuraminidase from recombinant H3N2 influenza A virus (Influenza A virus, UniProt P03482). In words: biochemical. Type of assay: biochemical.
Assay [2] has as its target neuraminidase from recombinant H5N1 influenza A virus (Influenza A virus, UniProt Q6DPL2). As to the kind of experiment: biochemical.

neuraminidase from recombinant H3N2 influenza A virus, sequence (P03482 whole entry): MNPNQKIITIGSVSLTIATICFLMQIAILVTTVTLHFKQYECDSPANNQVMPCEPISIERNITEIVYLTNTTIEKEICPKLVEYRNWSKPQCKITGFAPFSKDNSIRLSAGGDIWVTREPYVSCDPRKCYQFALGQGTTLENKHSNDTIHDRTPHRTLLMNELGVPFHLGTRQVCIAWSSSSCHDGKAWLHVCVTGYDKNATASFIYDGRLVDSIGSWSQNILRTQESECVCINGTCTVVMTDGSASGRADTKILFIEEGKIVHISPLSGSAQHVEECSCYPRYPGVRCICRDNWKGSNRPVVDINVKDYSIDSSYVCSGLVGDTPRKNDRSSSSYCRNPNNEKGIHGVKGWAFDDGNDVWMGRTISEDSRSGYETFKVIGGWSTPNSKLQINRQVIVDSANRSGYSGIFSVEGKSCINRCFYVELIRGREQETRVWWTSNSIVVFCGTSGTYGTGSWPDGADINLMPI
neuraminidase from recombinant H5N1 influenza A virus, sequence (Q6DPL2 whole entry, looked up): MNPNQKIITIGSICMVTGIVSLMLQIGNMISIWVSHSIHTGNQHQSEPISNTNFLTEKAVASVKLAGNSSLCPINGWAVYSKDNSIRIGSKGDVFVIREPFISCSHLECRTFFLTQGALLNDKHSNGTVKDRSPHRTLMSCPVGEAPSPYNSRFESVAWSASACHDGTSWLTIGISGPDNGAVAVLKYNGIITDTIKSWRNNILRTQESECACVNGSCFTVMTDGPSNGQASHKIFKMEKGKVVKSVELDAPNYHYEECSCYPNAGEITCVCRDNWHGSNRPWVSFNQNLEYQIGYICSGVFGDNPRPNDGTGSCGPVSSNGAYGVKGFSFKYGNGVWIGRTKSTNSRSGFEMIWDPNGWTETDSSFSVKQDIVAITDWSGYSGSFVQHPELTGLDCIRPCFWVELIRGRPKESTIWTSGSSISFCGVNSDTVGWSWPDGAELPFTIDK

For `C/C=C/C1=CC2=C(CO1)C(=O)[C@](C)(O)[C@H](OC(=O)c1c(C)cc(O)cc1O)C2` [Compound 3, comazaphilone D], in assay [1], the Inhibition type entry is given as “Non-competitive (35.3)” and the Ki turned out to be 35.3 µM. Moreover, the IC50 in assay [1] (IC50 H3N2 neuraminidase) worked out at 30.9 ± 0.1 µM. Moreover, the IC50 in assay [2] is 35.7 ± 0.2 µM.

The values are drawn from paper PMC6691809 (Mycobiology, 2019).
